Experimental data published in patent US9718781B2, “Methods and compounds for treating proliferative disorders and viral infections” (University College Dublin, National University of Ireland, …, priority 2012, dated 2017).
Where two headings read alike, the source gives them in different places.

Experiments:
TPα = target: T1, TPα (Homo sapiens, UniProt P21731); test: U46619-induced [Ca2+]i mobilization in HEK.TPα cells; type: cell-based; details: for remaining activity at 1 µM: antagonist 1 μM, read-out: Percentage of Control, TPα, 1 μM; for remaining activity at 1 µM / remaining activity at 10 µM: % of agonist-induced response in vehicle-treated cells; for remaining activity at 10 µM: antagonist 10 μM, read-out: Percentage of Control, TPα, 10 μM
T1 construct: expressed in transfected cells
T1 sequence (P21731 1-343): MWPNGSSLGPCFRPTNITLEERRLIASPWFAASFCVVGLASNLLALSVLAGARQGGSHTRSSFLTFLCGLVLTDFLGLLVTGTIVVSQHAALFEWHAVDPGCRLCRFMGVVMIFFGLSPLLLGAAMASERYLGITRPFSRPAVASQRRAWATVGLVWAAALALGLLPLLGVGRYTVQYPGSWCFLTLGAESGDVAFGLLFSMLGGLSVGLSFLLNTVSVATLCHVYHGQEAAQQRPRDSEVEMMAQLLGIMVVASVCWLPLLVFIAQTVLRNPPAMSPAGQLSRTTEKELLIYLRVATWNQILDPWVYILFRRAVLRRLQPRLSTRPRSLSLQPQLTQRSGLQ
Summary of the method: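 HEK293 cells loaded with 3 μM Fluo-4 (1 h, 25° C.) in Krebs-HEPES pH 7.4, then pre-incubated with compound for 10 min. Fluorescence at 520 nm tracked after injection of 1 μM U46619. Signal calibrated by Fmax (2% Triton X100) and Fmin (1 mM EGTA).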

platelets in whole blood = test: U46619-mediated platelet aggregation in whole blood (Sysmex haematological analyzer); type: cell-based, human; details: antagonist 0.1 μM, 1 μM U46619
Experimental: From an efficacy point of view, this is an important assay and, physiologically, relevant with respect to the therapeutic target.
Initially, the Sysmex haematological analyzer was used to examine the effect of the TP antagonists at a single concentration (0.1 μM) on U46619 (1 μM)-mediated platelet aggregation in whole blood.
FIG. 3 illustrates effects of the TP antagonist compounds on U46619-mediated platelet aggregation. Blood was taken form healthy volunteer by venupuncture into syringes containing 3.8% sodium citrate, 10 μM Indomethacin, such that the ratio of anticoagulant:blood was 1:9. The blood was aliquoted and incubated for 10 min with TP20 and selected NTP compounds, as indicated, where the antagonist were used at 0.1 μM prior to stimulation with 1 μM U46619 for 3 min. The blood was fixed with formaldehyde and platelet numbers counted using the Sysmex haematological analyzer. Data is presented as the mean percentage of control or non-treated blood sample (Percentage of Control; %) and represent data from 3 independent experiments were samples were treated in duplicate.

[1] = side-by-side comparison, n=5, Table 2.6, read-out: IC50 values for inhibition of U46619-mediated [Ca2+]i, TPα

Row | Compound | remaining activity at 1 µM (TPα; 1 μM U46619) | remaining activity at 10 µM (TPα; 1 μM U46619) | IC50 (TPα; [1]) | inhibition of U46619-mediated reduction in platelet number (platelets in whole blood) | IC50 (TPα; HEK.TPα cells, 1 μM U46619, Table 2, read-out: IC50 data for U46619-mediated [Ca2+]i mobilization, TPα) | TPα:TPβ Selectivity Ratio (TPα; IC50 TPα/IC50 TPβ)
1 | COc1ccc(-c2cccc(Oc3ccc(C#N)cc3S(=O)(=O)NC(=O)NC(C)(C)C)c2)cc1 [NTP4, N-(tert-butylcarbamoyl)-5-cyano-2-((4′-methoxy-[1,1′-biphenyl]-3-yl)oxy)benzenesulfonamide] | 46.1 ± 3.87% | 19.9 ± 2.13% | 593 ± 83.6 nM | approx. 50% | – | –
2 | COc1ccc(-c2cccc(Oc3ccc([N+](=O)[O-])cc3S(=O)(=O)NC(=O)NC(C)(C)C)c2)cc1 [TP20, N-(tert-butylcarbamoyl)-2-((4′-methoxy-[1,1′-biphenyl]-3-yl)oxy)-5-nitrobenzene-sulfonamide] | 45.4 ± 4.07% | 17.1 ± 2.46% | 240 ± 29.8 nM | almost completely inhibited | 119 nM | 16.2
